# According to patent US8481005B2, “Methods to prevent cytotoxicity using N-acetyl-cysteine” (priority 2006, dated 2013):
# Experiments:
# active caspase 3 = assay: Active caspase 3 staining in PBMCs treated with HEMA or CDDP; format: cell-based; settings: HEMA 0.0164M
# PBMCs = PBMCs treated with HEMA or CDDP, FITC-Annexin V and PI; format: cell-based; settings: about 18 hours, highest concentration of CDDP, HEMA 0.0164M-0.00164M
# From the text: The cells were then stained with FITC-Annexin V and PI according to the manufacturer's protocol.
# [1] = test system: NFkB knock down oral keratinocytes; assay: Cell death in NFkB knock down oral keratinocytes (FS/PI); format: cell-based, human; settings: overnight
# From the text: Next, retrovirally-transduced oral keratinocytes were left untreated or treated with HEMA. […] Numbers in each quadrant represent the percentages of cells in that quadrant.
# Similar treatments were next performed as described above except that the morphological assessment of oral keratinocytes before and after HEMA treatment was examined.
# [2] = test system: osteopontin (OPN) and osteocalcin (OCN); assay: RT-PCR for osteopontin and osteocalcin in rat dental pulp stromal cells; format: cell-based; settings: media containing ascorbic acid and β-glycerophosphate
# From the text: Rat dental pulp stromal cells were again cultured under 3 different conditions: (1) DMEM alone (undifferentiated); (2) DMEM+β-glycerophosphate+ascorbic acid (differentiated−Dex); and (3) DMEM+β-glycerophosphate+ascorbic acid+dexamethasone (differentiated+Dex). The differentiation of the cells under these different culture conditions was then confirmed by an RT-PCR to assay for genes which are induced during differentiation (osteopontin and osteocalcin). Osteopontin (OPN), is an early osteoblastic marker and osteocalcin (OCN) a late stage marker.
# RNA was extracted from the cells and PCR was again performed for OPN and OCN.
# [3] = test system: human dental pulp stromal cells; assay: ALP staining of human dental pulp stromal cells; format: cell-based; settings: after 7 days of incubation; NAC 20 mM
# Method: Following the experiment described above in human dental pulp stromal cells, treatments were carried out as described above with the levels of ALP staining representing maturation/differentiation of dental pulp stromal cells. This staining was performed after 7 days of incubation. […] Odontoblasts
# [4] = test system: dental pulp stromal cells; assay: Rat tooth bleaching: dental pulp stromal cell growth, count and ALP; format: in vivo, rats; settings: bleaching agent 5 hours, without or with NAC 20 mM painted 5 minutes; 12-21 days
# Method: Similar studies were also carried out using dental pulp stromal cells. Rats were divided into three groups: (1) Control (no bleach); (2) Bleach; and (3) Bleach and NAC. In these studies, NAC was initially painted on to the teeth (20 mM concentration) for 5 minutes and then bleaching agent applied for 5 hours, after which the teeth were extracted, and pulp was obtained from each group. Pulp was treated with trypsin/EDTA (0.25%) and collagenase (0.02%) to obtain single cell suspension of the cells, washed and resuspended in DMEM containing β-glycerophosphate (10 mM) and ascorbic acid (50 μg/ml), and allowed to grow to confluency, before either photographs were taken (12-21 days; FIG. 47); cells were counted (21 days; FIG. 48); or ALP staining was performed (21 days; FIG. 49). […] Whitening Strips
# [5] = test system: human dental pulp stromal cells; assay: Apoptosis in human dental pulp stromal cells, 18 hours; format: cell-based; settings: HEMA and NAC 20 mM
# Method: Pulp was then removed, minced and treated with trypsin/EDTA and collagenase to release the dental pulp stromal cells. […] Next the cells were analyzed for apoptosis using FTIC-Annexin V and PI.
# dental pulp cells = assay: Rat incisor restoration with Herculite XR/ProBOND with or without NAC: pulp cell growth and ALP staining; format: in vivo, rats; settings: restorative materials about 5 hours
# Method: In a next experiment, the incisors of nine eight-week-old male rats were prepared with class V preparations near the level of the gingival using a #1 round bur in a high speed dental handpiece.
# Again, in this experiment upper and lower incisors were used. Restorative materials were placed on the teeth for about 5 hours. The pulp was extracted and treated with trypsin/EDTA (0.25%) and collagenase (0.02%), washed and resuspended in DMEM containing β-glycerophosphate (10 mM) and ascorbic acid (50 μg/ml) and allowed to grow to confluency. After 14 days of cell growth (media changed every 2-3 days) photographs were taken using an inverted microscope; cells were detached and counted in each experimental group; and wells containing different experimental groups were stained for alkaline phosphatase (ALP).
# In vivo studies were performed after tooth restorations to assess the protective effect of NAC on both the viability and function of rat pulp tissue. Eight week old male rats were used for restorations of the incisors. In this study the number of functional cells in cells extracted from the lining of the rat teeth where (A) no restorative materials were administered; (B) restorative materials only were applied; and (C) restorative material in conjunction with NAC were compared. Specifically, nine rats were used and were divided into 3 groups (A, B or C) of 3 rats each. […]
# [6] = test system: dental pulp stromal cells; assay: Cell death in rat dental pulp stromal cells in vitro; format: cell-based, Sprague-Dawley rats; settings: 0.0328M and 0.00328M HEMA with NAC 20 mM, about 12-14 hours, versus HEMA alone
# From the text: In a first study using dental pulp stromal cells, dental pulp tissue was extracted from the lower central incisors of 8-12 week old male Sprague-Dawley rats. The lower central incisors were carefully extracted without fracture to avoid periodontal tissue influx into the pulp tissue. The periodontal tissue and other soft tissue remnants were removed from the root part of the teeth, and the incisor tip and root parts were then cut to allow the pulp tissue to be washed out. The extracted tissue was then treated with 0.1% collagenase in 0.25% trypsin EDTA at 37° C. for about 15 minutes. The pellet of released cells was then centrifuged at about 2000 rpm for about 4 minutes and resuspended in DMEM supplemented with 10% FBS, 1% sodium pyruvate, 1% non-essential amino acids and 1% antibiotic-antimycotic. The cells were cultured in a 6 well plate and the media was changed every 3 days.
# [7] = test system: human dental pulp stromal cells; assay: Extracted human teeth restored with composite resin with or without NAC: pulp cell growth; settings: restorations left 5 hours; 14 days of incubation
# Method: Three freshly extracted human teeth were obtained. Cavity preparations were performed on 2 freshly extracted third molars before restoration. One molar was left untouched and used as control. Specifically, tooth #1 was left untreated; tooth #2 was restored with composite resin alone; and tooth #3 was restored with composite resin after application of NAC. […] Single cell suspensions of control and each restored tooth were then cultured in the presence of β-glycerophosphate (10 mM) and ascorbic acid (50 μg/ml) and microscopic pictures taken after 14 days of incubation for growth.
# odontoblasts = assay: Cell viability of rat odontoblasts; format: cell-based; settings: 0.0164M-0.00164M HEMA with NAC 20 mM, about 12-14 hours, versus HEMA alone
# Method: Differentiation was induced by the addition of about 10 mM of β-glycerophosphate and about 50 μg/ml of ascorbic acid.
# IL-2 treated PBMCs = assay: Tritiated thymidine proliferation of IL-2 treated PBMCs; format: cell-based; settings: HEMA and NAC, 24 hours with tritiated thymidine
# Method: Tritiated thymidine was added to the cells and after 24 hours of incubation assessed for proliferation.
# [8] = test system: differentiated pulp cells (odontoblasts); assay: Composite discs on differentiated pulp cells, FITC-Annexin V/PI; format: cell-based; settings: completely cured composite discs in 0.4 μm inserts; one week
# Method: Next, the effects of routinely used composites on the odontoblasts were tested. The composite discs were made according to ADA specifications. These discs were completely cured for a total time of about 90 seconds. The discs were then placed into culture dish inserts (Millipore, Calif.). […] The insert along with the composite disc were placed into the well containing the differentiated pulp cells. After one week of incubation at about 37° C. the cells were removed and the numbers of apoptotic cells were analyzed using FITC-Annexin V/PI as described previously.
Structure (SMILES),increase in active caspase 3 staining compared to the CDDP treated cells (active caspase 3),active caspase 3 staining (active caspase 3; CDDP),cells remained both PI and Annexin V negative (PBMCs),"cell death (FS, PI staining) [1]",differentiation markers OPN and OCN [2],HEMA-mediated decrease in ALP [3],cytotoxicity and cell death of dental pulp stromal cells [4],inhibition of HEMA-mediated cell death [5],pulp cell number after restoration (dental pulp cells; 14 days of cell growth),ALP staining of pulp cells after restoration (dental pulp cells; composite resin with or without NAC),viable cells after HEMA exposure [6],growth of pulp cells [7],percentage of viable cells (odontoblasts),proliferation (IL-2 treated PBMCs),apoptotic cells (FITC-Annexin V/PI) [8]
"C=C(C)C(=O)OCCO [HEMA, hydroxyethyl methacrylate]",about 2 fold,42%,less than 50%,induces significant cell death,,,,,,,,,,,
"CC(=O)N[C@@H](CS)C(=O)O [NAC, N-acetyl-cysteine]",,,,,express higher levels of OPN and OCN,significantly prevented,could be reversed,significant inhibition of HEMA-mediated cell death at all HEMA concentrations,can help to prevent the cell loss,can be ameliorated,higher number of viable cells,growth and expansion of the cells resulted,percentage of viable cells increases,can prevent HEMA-induced loss of proliferation,inhibits cell death induced by light cured composite disks
